Measurements reported in patent US20240018121A1, “NOVEL HETEROAROMATIC COMPOUNDS EXHIBITING ANTIFUNGAL ACTIVITY AND THEIR METHOD OF USE” (FOX CHASE CHEMCIAL DIVERSITY CENTER, INC., priority 2020, published 2024).
In brackets after ≈: the same amount, converted by molar mass. Structures can show the parent of a compound that is named as a salt. Where two headings read alike, the source gives them in different places.

Legend:
Type in all cases: cell-based
[1] = tested on: Aspergillus flavus AFL1 (ATCC MYA-3631); assay: Fungal MIC Protocol, Aspergillus flavus; conditions: Aspergillus flavus, read-out: MIC Aspergillus flavus 3631
How it was run: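 Aspergillus flavus spores were grown on Potato Dextrose Agar at 35° C. for 3-5 days, harvested in PBS pH 7.4+0.1% Tween-20 with glass beads, and diluted in RPMI/MOPS to an OD530 of 0.002 (about 2×10^4 cfu/mL). 50 ul of spores were combined with 50 μl of serially diluted compound in 96-well round bottom plates and incubated at 35° C. for 48 hours.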

[2] = tested on: Mucor circinelloides 1463(62) (ATCC 26759); assay: Fungal MIC Protocol, Mucor circinelloides (MIC-50); conditions: Mucor circinelloides, read-out: MIC-50 Mucorales circinelloides 26579
How it was run: (§1)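 MIC-type endpoint: >50% growth inhibition, judged by eye with an inverted mirror. Spores in RPMI/MOPS (pH 7.0, ~2×10^4 cfu/mL) were incubated 48 hours at 35° C with duplicate serial compound dilutions.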

[3] = tested on: Aspergillus fumigatus T33439 (ATCC MYA-3626); assay: Fungal MIC Protocol, Aspergillus fumigatus; conditions: Aspergillus fumigatus, read-out: MIC Aspergillus fumigatus 3626
How it was run: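 Aspergillus fumigatus was grown on Potato Dextrose Agar at 35° C. for 3-5 days, and spores were collected with PBS pH 7.4+0.1% Tween-20 plus glass beads. Spores were diluted in RPMI/MOPS to OD530 0.002 (about 2×10^4 cfu/mL). 50 ul was added to 50 μl of serially diluted compound in round bottom 96-well plates, run in duplicate, and incubated at 35° C. for 48 hours.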

[4] = tested on: Mucor ramosissimus 057718 (ATCC 90286); assay: Fungal MIC Protocol, Mucor ramosissimus (MIC-50); conditions: Mucor ramosissimus, read-out: MIC-50 Mucorales ramosissimus 90286
How it was run: as §1

[5] = tested on: Fusarium falciforme FS1 (ATCC MYA-3636); assay: Fungal MIC Protocol, Fusarium falciforme; conditions: Fusarium falciforme, read-out: MIC Fusarium falciforme 3636
How it was run: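 Fusarium falciforme spores were raised on Potato Dextrose Agar at 35° C. for 3-5 days, collected in PBS pH 7.4+0.1% Tween-20 with glass beads, and diluted in RPMI/MOPS pH 7.0 to OD530 0.005 (about 2×10^4 cfu/mL). 50 ul spores were added to 50 μl duplicate serial compound dilutions in round bottom 96-well plates and incubated at 35° C. for 48 hours.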

[6] = tested on: Fusarium solani (ATCC 58877); assay: Fungal MIC Protocol, Fusarium solani; conditions: Fusarium solani, read-out: MIC Fusarium solani 58877
How it was run: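 Fusarium solani spores were grown on Potato Dextrose Agar in tissue culture flasks at 35° C. for 3-5 days, harvested with PBS pH 7.4+0.1% Tween-20 and glass beads, and diluted in RPMI/MOPS to an OD530 of 0.005 (about 2×10^4 cfu/mL). Equal 50 ul volumes of spores and serially diluted compound were combined in 96-well round bottom plates and incubated 48 hours at 35° C.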

Candida albicans GDH2346 = assay: Candida Minimal Inhibitory Concentration (MIC); conditions: Candida albicans, read-out: MIC-50 Candida albicans GDH2346
How it was run: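 Twofold serial dilutions from 200 μg/mL in RPMI 1640/MOPS with glucose, pH 7.0, tested in duplicate against yeast from an OD600 1.0 suspension diluted 1:1000. Incubated at 35° C; OD600 read at 24 and 48 h.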

[7] = 100% growth inhibition at 48 hours
[8] = ATCC26759, 50% growth inhibition at 48 hours
[9] = ATCC90286, 50% growth inhibition at 48 hours
[10] = ATCC58877, 100% growth inhibition at 48 hours
[11] = GDH2346, 50% growth inhibition at 48 hours

SMILES	MIC [1, 7]	MIC50 [2, 8]	MIC [3, 7]	MIC50 [4, 9]	MIC [5, 7]	MIC [6, 10]	MIC50 (Candida albicans GDH2346; [11])	MIC ([1]; 48 h)	MIC50 ([2]; ATCC26759, 48 h)	MIC ([3]; 48 h)	MIC50 ([4]; ATCC90286, 48 h)	MIC ([5]; 48 h)	MIC ([6]; ATCC58877, 48 h)	MIC50 (Candida albicans GDH2346; GDH2346, 48 h)
Cn1c(-c2ccc(C3=CCN(C(=N)N)CC3)c(F)c2)nnc1-c1ccc(C2=CCN(C(=N)N)CC2)c(F)c1 [Example 19, 4,4′-(4,4-(4-Methyl-4H-1,2,4-triazole-3,5-diyl)bis(2-fluoro-4,1-phenylene)) bis(5,6-dihydropyridine-1(2H)-carboximidamide)]	0.03 µg/mL (≈ 0.058 µM)	0.1 µg/mL (≈ 0.193 µM)	0.01 µg/mL (≈ 0.0193 µM)	0.2 µg/mL (≈ 0.386 µM)	0.01 µg/mL (≈ 0.0193 µM)	0.03 µg/mL (≈ 0.058 µM)	0.1 µg/mL (≈ 0.193 µM)	–	–	–	–	–	–	–
Cc1cc(-n2cc(-c3ccc(C4=CCN(C(=N)N)CC4)cc3)nn2)ccc1C1=CCN(C(=N)N)CC1 [Example 35, 4-(4-(1-(4-(1-Carbamimidoyl-1,2,3,6-tetrahydropyridin-4-yl)-3-methylphenyl)-1H-1,2,3-triazol-4-yl)phenyl)-5,6-dihydropyridine-1(2H)-carboximidamide]	0.39 µg/mL (≈ 0.81 µM)	0.39 µg/mL (≈ 0.81 µM)	1.56 µg/mL (≈ 3.24 µM)	25 µg/mL (≈ 51.9 µM)	< 0.1 µg/mL	1.56 µg/mL (≈ 3.24 µM)	0.39 µg/mL (≈ 0.81 µM)	–	–	–	–	–	–	–
Cc1cc(C2=CCN(C(=N)N)CC2)ccc1-c1cn(-c2ccc(C3=CCN(C(=N)N)CC3)cc2)nn1 [Example 36, 4-(4-(4-(4-(1-Carbamimidoyl-1,2,3,6-tetrahydropyridin-4-yl)-2-methylphenyl)-1H-1,2,3-triazol-1-yl)phenyl)-5,6-dihydropyridine-1(2H)-carboximidamide]	0.2 µg/mL (≈ 0.415 µM)	0.78 µg/mL (≈ 1.62 µM)	0.2 µg/mL (≈ 0.415 µM)	3.13 µg/mL (≈ 6.5 µM)	0.1 µg/mL (≈ 0.208 µM)	0.2 µg/mL (≈ 0.415 µM)	0.39 µg/mL (≈ 0.81 µM)	–	–	–	–	–	–	–
CC(C)Cn1c(-c2ccc(C3=CCN(C(=N)N)CC3)cc2F)nnc1-c1ccc(C2=CCN(C(=N)N)CC2)cc1F [Example 14]	< 0.1 µg/mL	< 0.1 µg/mL	< 0.1 µg/mL	1.56 µg/mL (≈ 2.79 µM)	< 0.1 µg/mL	6.25 µg/mL (≈ 11.2 µM)	0.39 µg/mL (≈ 0.697 µM)	–	–	–	–	–	–	–
N=C(N)N1CC=C(c2ccc(-c3nnc(-c4ccc(C5=CCN(C(=N)N)CC5)cc4F)o3)c(F)c2)CC1 [Example 48]	0.78 µg/mL (≈ 1.55 µM)	0.78 µg/mL (≈ 1.55 µM)	0.78 µg/mL (≈ 1.55 µM)	6.25 µg/mL (≈ 12.4 µM)	< 0.1 µg/mL	3.13 µg/mL (≈ 6.2 µM)	1.56 µg/mL (≈ 3.09 µM)	–	–	–	–	–	–	–
CCn1c(-c2ccc(C3=CCN(C(=N)N)CC3)cc2)nnc1-c1ccc(C2=CCN(C(=N)N)CC2)cc1 [Example 2, 4,4′-(4,4′-(4-Ethyl-4H-1,2,4-triazole-3,5-diyl)bis(4,1-phenylene)) bis(5,6-dihydropyridine-1(2H)-carboximidamide)]	< 0.1 µg/mL	> 100 µg/mL	0.2 µg/mL (≈ 0.404 µM)	> 100 µg/mL	< 0.1 µg/mL	< 0.1 µg/mL	< 0.024 µg/mL	–	–	–	–	–	–	–
Cn1c(-c2cc(F)c(C3=CCN(C(=N)N)CC3)c(F)c2)nnc1-c1ccc(C2=CCN(C(=N)N)CC2)cc1F [Example 85, 4-(4-{5-[4-(1-carbamimidoyl-1,2,3,6-tetrahydropyridin-4-yl)-2-fluorophenyl]-4-methyl-4H-1,2,4-triazol-3-yl}-2,6-difluorophenyl)-1,2,3,6-tetrahydropyridine-1-carboximidamide trifluoroacetate]	–	–	–	–	–	–	–	0.024 µg/mL	0.2 µg/mL	0.024 µg/mL	0.78 µg/mL	< 0.012 µg/mL	< 0.012 µg/mL	0.1 µg/mL
Cn1c(-c2ccc(C3=CCN(C(=N)N)C3)cc2)nnc1-c1ccc(C2=CCN(C(=N)N)C2)cc1 [Example 29]	0.39 µg/mL (≈ 0.86 µM)	6.25 µg/mL (≈ 13.8 µM)	< 0.1 µg/mL	6.25 µg/mL (≈ 13.8 µM)	< 0.1 µg/mL	0.39 µg/mL (≈ 0.86 µM)	1.56 µg/mL (≈ 3.44 µM)	–	–	–	–	–	–	–
Cc1cc(C2=CCN(C(=N)N)CC2)ccc1-n1nnc(-c2ccc(C3=CCN(C(=N)N)CC3)cc2)c1C [Example 32, 4-(4-(1-(4-(1-Carbamimidoyl-1,2,3,6-tetrahydropyridin-4-yl)-2-methylphenyl)-5-methyl-1H-1,2,3-triazol-4-yl)phenyl)-5,6-dihydropyridine-1(2H)-carboximidamide]	0.39 µg/mL (≈ 0.787 µM)	0.78 µg/mL (≈ 1.57 µM)	0.78 µg/mL (≈ 1.57 µM)	6.25 µg/mL (≈ 12.6 µM)	< 0.1 µg/mL	0.78 µg/mL (≈ 1.57 µM)	0.08 µg/mL (≈ 0.161 µM)	–	–	–	–	–	–	–
N=C(N)N1CC=C(c2ccc(-c3cn(-c4ccc(C5=CCN(C(=N)N)CC5)cc4)nn3)cc2)CC1 [Example 30, 4(4-{1-[4-(1-Carbamimidoyl-1,2,3,6-tetrahydropyridin-4-yl)phenyl]-1H-1,2,3-triazol-4-yl}phenyl)-1,2,3,6-tetrahydropyridine-1-carboximidamide]	0.06 µg/mL (≈ 0.128 µM)	0.1 µg/mL (≈ 0.214 µM)	0.01 µg/mL (≈ 0.0214 µM)	0.78 µg/mL (≈ 1.67 µM)	0.01 µg/mL (≈ 0.0214 µM)	< 0.05 µg/mL	0.63 µg/mL (≈ 1.35 µM)	–	–	–	–	–	–	–
Cc1cc(-c2cn(-c3ccc(C4=CCN(C(=N)N)CC4)cc3)nn2)ccc1C1=CCN(C(=N)N)CC1 [Example 37, 4-(4-(4-(4-(1-Carbamimidoyl-1,2,3,6-tetrahydropyridin-4-yl)-3-methylphenyl)-1H-1,2,3-triazol-1-yl)phenyl)-5,6-dihydropyridine-1(2H)-carboximidamide]	0.2 µg/mL (≈ 0.415 µM)	0.39 µg/mL (≈ 0.81 µM)	0.39 µg/mL (≈ 0.81 µM)	6.25 µg/mL (≈ 13 µM)	0.39 µg/mL (≈ 0.81 µM)	0.39 µg/mL (≈ 0.81 µM)	0.78 µg/mL (≈ 1.62 µM)	–	–	–	–	–	–	–
Cc1cc(C2=CCN(C(=N)N)CC2)ccc1-c1nnc(-c2ccc(C3=CCN(C(=N)N)CC3)cc2)o1 [Example 43, 4-(4-(5-(4-(1-Carbamimidoyl-1,2,3,6-tetrahydropyridin-4-yl)-2-methylphenyl)-1,3,4-oxadiazol-2-yl)phenyl)-5,6-dihydropyridine-1(2H)-carboximidamide]	0.31 µg/mL (≈ 0.642 µM)	12.5 µg/mL (≈ 25.9 µM)	0.78 µg/mL (≈ 1.62 µM)	25 µg/mL (≈ 51.8 µM)	0.2 µg/mL (≈ 0.414 µM)	0.78 µg/mL (≈ 1.62 µM)	0.39 µg/mL (≈ 0.808 µM)	–	–	–	–	–	–	–
